The record followed here is patent US8507460B2, “Substituted 3′,5′-cyclic phosphates of purine nucleotide compounds and pharmaceutical compositions for the treatment of viral infections” (priority 2011, dated 2013).

What is called Cmax is the maximum level reached in the sampled fluid or tissue. In general, Tmax refers to the time at which the peak concentration occurs.

Data set [1] can be described thus: Plasma and liver pharmacokinetics following a single oral dose in monkeys (Example 6). The settings on record: cynomolgus monkey; for AUC(0-t) / Cmax / Tmax: Cynomolgus monkeys, single oral dose (mg/kg per Table 6: 1a 10, A 25, B 10, C 10, D 50); for AUC(0-t) / Cmax: normalized to 1 μmol/kg dose; for AUC(0-t): read-out: Plasma prodrug AUC0-24; for Cmax: read-out: Plasma prodrug Cmax; for Tmax: read-out: Plasma prodrug Tmax. The class given is in vivo. Here is the method:
[…] Untreated animals were used for the collection of control liver. Plasma samples were collected at 1, 2, 4, 6, 8, 12 and 24 hours for all compounds and additionally at 0.5 hour (Compounds 1a, B and D), 3 and 10 hours (Compound C), and 32 and 48 hours post dose for Compound A. Terminal liver samples were collected from three animals per time point at 6, 12 and 24 hours post dose for all compounds and additionally at 2 hours (Compounds 1a, B and D), 3 hours (Compound C) and 32 and 48 hours post dose for Compound A. Liver specimens were collected from all animals immediately after the incision. Freezing forceps stored in liquid nitrogen were used to freeze the liver before excision.
(§1) Plasma samples were analyzed for the prodrug and 2′-methylguanosine (2′-MeG) or relevant nucleoside by LC-MS/MS. For protein precipitation and extraction, each plasma sample (50 μL) was treated with 500 μL of 0.2% formic acid in acetonitrile and 20 μL of an appropriate internal standard working solution. After vortexing and centrifugation, 500 μL of the sample extracts were transferred to a new plate, dried under N2 at ˜28° C. and reconstituted with 75 μL of 0.2% FA in water. The extracts were chromatographed on an Aquasil C18 column using a gradient system of 0.2% formic acid in water and acetonitrile. The analytes were detected and quantified by tandem mass spectrometry in positive ion mode on an MDS Sciex API5000 or an API4000 equipped with a Turbo Ionspray® interface. The calibration range was 0.500 (LLOQ) to 200 ng/mL in mouse plasma. The corresponding range for molar units is 1.68 to 673 pmol/mL.
(§2) Liver samples were analyzed for the active species 2′-methylguanosine triphosphate (2′-MeGTP) or relevant nucleoside triphosphate by LC-MS/MS. The triphosphate levels were assayed by homogenizing (on ice) a known weight of mouse liver with 4× volume of 0.95 M trichloroacetic acid (TCA). Appropriate internal standard solution was added to the homogenate followed by neutralization with 20% ammonium hydroxide solution and addition of 500 μL 1% formic acid. The tissue samples were extracted by weak anion exchange solid phase extraction (SPE). Post extraction, the eluates were evaporated under nitrogen, followed by reconstitution before injection onto the LC-MS/MS system. The samples were chromatographed on a Luna NH2 column using a gradient system of ammonium acetate (1 mM to 20 mM and pH 8.0 to pH 10.0) in water and acetonitrile (70:30). The analyte was detected and quantified by tandem mass spectrometry in positive ion mode on an API4000 equipped with a Turbo Ionspray® interface. The calibration range was 10 to 10000 pmol/mL in mouse liver homogenate (50 to 50000 pmol/g of mouse liver).

The nature of data set [2]: Plasma and liver pharmacokinetics following a single oral dose in mice (Example 6). The class given is in vivo. The following applies: CD-1 mice, oral 25 mg/kg, normalized to 1 μmol/kg dose; 1a average of N = 3. Here is the method:
For each compound, a single oral dose at 25 mg/kg in PEG 200 (dose volume 5 mL/kg) was administered to [CD-1] mice. Untreated animals were used for the collection of control liver. Terminal liver and plasma samples were collected from three animals per time point at 4, 12 and 24 hours post dose and additionally at 1 hour post dose in one occasion of Compound 1 (see Example 5). Liver specimens were collected from all animals immediately after the incision. Freezing forceps stored in liquid nitrogen were used to freeze the liver before excision.
as §1, §2

Where two headings read alike, the source gives them in different places.

On to `COc1nc(N)nc2c1ncn2[C@@H]1O[C@H](COP(=O)(N[C@@H](C)C(=O)OCC(C)(C)C)Oc2cccc3ccccc23)[C@@H](O)[C@@]1(C)O` (stereo partly drawn) [Compound B, L-Alanine, N-(2′-C-methyl-6-O-methyl-P-1-naphthalenyl-5′-guanylyl)-, 2,2-dimethylpropyl ester], for which, in data set [1] (in vivo), the AUC(0-t) stood at 0.2 nM·h, the Cmax came out at 0.2 nM and the time to peak (Tmax) turned out to be 30 min.
As to `CCOc1nc(N)nc2c1ncn2[C@@H]1O[C@@H]2COP(=O)(OC(C)C)O[C@H]2[C@@]1(C)F` (stereo partly drawn) [Compound A, 6-ethoxy-9-((4aR,6R,7R,7aR)-7-fluoro-2-isopropoxy-7-methyl-2-oxo-tetrahydro-2,5-furo[3,2-d][1,3,2]dioxaphosphinin-6-yl)-9H-purin-2-yl amine], in data set [1] (plasma), the AUC(0-t) stood at 410 nM·h, the Cmax was 100 nM and the time to peak (Tmax) was 120 min.
`CC(C)OC(=O)[C@H](C)N[P@](=O)(OC[C@H]1O[C@@H](n2ccc(=O)[nH]c2=O)[C@](C)(F)[C@@H]1O)Oc1ccccc1` [Compound D, L-Alanine, N—((P(S),2′R)-2′-deoxy-2′-fluoro-2′-methyl-P-phenyl-5′-uridylyl)-, 1-methylethyl ester]: in data set [1] (in vivo), the AUC(0-t) worked out at 3.5 nM·h, the Cmax was 1.2 nM and the Tmax was 30 min.
With `CC(C)(CO)C(=O)SCCOP(=O)(NCc1ccccc1)OCC1OC(n2cnc3c(=O)[nH]c(N)nc32)C(C)(O)C1O` (stereo not drawn) [Compound C, 2′-C-methyl-guanosine, 5′-[2-[(3-hydroxy-2,2-dimethyl-1-oxopropyl)thio]ethyl N-(phenylmethyl)phosphoramidate], reference compound], the “Plasma prodrug Tmax” value in data set [1] (in vivo, po) stood at 360 min. In data set [2], the “Nucleoside triphosphate in Liver AUC0-24” value is 290 pmol·h/g and the “Nucleoside triphosphate in Liver Cmax” value is on record as 19 pmol/g.
